Target: acetylcholinesterase from Electrophorus electricus (eelAChE) immobilized on magnetic beads (Electrophorus electricus, UniProt O42275)
Experiment: Ligand fishing assay using eelAChE-MB
Type: binding
Settings: 100 nM reference compounds, individually and as a mixture

Sequence of acetylcholinesterase from Electrophorus electricus (eelAChE) immobilized on magnetic beads (O42275 24-633): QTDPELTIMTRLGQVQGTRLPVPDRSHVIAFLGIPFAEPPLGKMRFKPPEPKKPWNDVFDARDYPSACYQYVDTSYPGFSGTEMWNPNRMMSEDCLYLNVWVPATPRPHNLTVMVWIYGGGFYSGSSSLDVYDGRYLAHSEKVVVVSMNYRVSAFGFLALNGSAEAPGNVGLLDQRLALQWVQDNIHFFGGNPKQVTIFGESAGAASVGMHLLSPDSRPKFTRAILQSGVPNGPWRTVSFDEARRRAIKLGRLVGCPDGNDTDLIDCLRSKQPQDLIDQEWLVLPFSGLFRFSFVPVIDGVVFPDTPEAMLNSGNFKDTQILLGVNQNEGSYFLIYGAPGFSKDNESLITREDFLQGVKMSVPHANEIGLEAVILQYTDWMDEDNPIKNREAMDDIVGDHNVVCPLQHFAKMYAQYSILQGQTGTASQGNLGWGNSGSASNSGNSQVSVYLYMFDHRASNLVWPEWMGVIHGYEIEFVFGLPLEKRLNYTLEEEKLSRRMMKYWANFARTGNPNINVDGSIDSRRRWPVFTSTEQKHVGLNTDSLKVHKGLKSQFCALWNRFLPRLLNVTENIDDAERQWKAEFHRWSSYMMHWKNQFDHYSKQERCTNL

| SMILES | Presence in supernatants S-1 (unbound) and S-2 (eluted) |
| --- | --- |
| CNC1(c2ccccc2Cl)CCCCC1=O (centres unmarked) [ketamine] | only present in S-1 |
| CC(CCc1ccccc1)NCC(O)c1ccc(O)c(C(N)=O)c1 (centres unmarked) [labetalol] | only present in S-1 |
